Results taken from patent US20180168154A1, “PLANT GROWTH REGULATING COMPOUNDS” (Syngenta Participations AG, priority 2015, published 2018).
Where two headings read alike, the source gives them in different places. Marks after values point to notes of the source that are not given here.

Legend:
NK Falkone corn seeds = test: Corn seed germination under cold stress; format: in vivo; settings: 250 μM, cold stress 15° C., control T50 = 110 hours; negative = faster germination
Method: Corn seed germination studies were undertaken on the compounds of the present invention. In particular, the effect of the compounds of Formulae (IA-1a) and (IA-1b) on the germination of NK Falkone corn seeds (Syngenta) under cold stress was evaluated as follows.
NK Falkone corn seeds were sorted by size using 2 sieves, one excluding very big seeds and the other with round holes of 8 to 9 mm diameter. The seeds retained by the latter sieve were used for the germination test.
The corn seeds were placed in 24 well plates (each plate is considered as one experimental unit or replicate). Germination is initiated by the addition of 250 μl of distilled water containing 0.5% DMSO per well as a means for compound solubilization. 8 replicates (ie, 8 plates) were used for each treatment characterization. Plates were sealed using seal foil (Polyolefin Art. Nr. 900320) from HJ-BIOANALYTIK. All plates were placed horizontally on trolleys in a climatic chamber at 15° C. or 23° C. in complete darkness. The experiment was laid out in a completely randomized design in a climatic chamber with 75% relative humidity. Foils were pierced, one hole per well using a syringe after 72 hours for experiments performed at 15° C. and after 24 hours for experiments performed at 23° C.
Germination was followed over time by taking photographs at different time points. Image analysis is done automatically with a macro developed using the Image J software. A dynamic analysis of germination is carried out by fitting a logistic curve to the relationship between % germination and time for each plate (T50 parameter).
T50 is the time needed for half the seed population to be germinated. A negative value of T50 represents a faster germination rate. The mean of T50 parameters is calculated for the 8 replicates and the kinetic parameter is determined for each germination curve. Data in bold indicate germination enhancing statistically significant differences between treated seeds and control (empty vehicle treated) T50 values (P<0.05) as outlined in Table 4.

[1] = Hydrolytic stability assay; format: physicochemical; settings: for half-life: 20 mM mixed acetate, borate and phosphate buffer; for half-life / Hydrolytic Stability (t1/2, hours) pH 7: 40° C.; for % remaining at last assessment time: pH 7, 40° C.
Method: The objective of the hydrolytic stability assays is to determine the chemical stability of individual test compounds according to the invention in a controlled and reproducible environment, allowing a comparison of compound in vitro stability under aqueous conditions at pH 7 and 9. Prior to conducting the individual hydrolytic stability assays, stock solutions containing 1000 ppm of each test compound (ie, compounds (IA-1a), (IA-1b), (IA-17a), (IA-17b), P1 and P2) were prepared in methanol. The reagents used in the assays were prepared as follows. A 20 mM buffer solution was prepared from a stock solution of 20 mM mixed acetate, borate and phosphate buffer and the pH adjusted to 7 or 9 as required. Test solutions were prepared in LC vials for each test compound in the following manner: Mobile Phase Control: Mobile phase (1 mL)+compound stock solution (2 to 40 μL). Hydrolytic Stability: Buffer (1 mL)+compound stock solution (2 to 40 μL). The mobile phase and buffer were initially dispensed into separate glass LC vials, placed into an autosampler complete with thermostat set at 40° C. and allowed to equilibrate for 30 minutes prior to starting the individual assays. Reactions were initiated by addition of the compound solution and monitored through a series of repeat injections made directly from the vial into the HPLC system at regular time intervals. Initial and subsequent measurements of peak area attributable to the test compound were used to fit exponential half-lives and calculate first-order rate constants. […] Consequently, the percentage of compound remaining was recorded at the last assessment time.

Soil stability assay = format: physicochemical; settings: Stein soil:sand 1:1, 0.3 μg/g soil, dark, 20° C.
Excerpt: It is highly desirable that agrochemicals applied to soil in order to deliver a beneficial biological effect can exist in the soil for a prolonged period of time with minimal degradation. However, a biologically active agrochemical compound may undergo chemical transformation in soil, leading to decreased levels of activity and a decrease in a desired biological effect. Simple laboratory degradation studies can be used to evaluate the disappearance due to biotic and abiotic processes of a compound in soil. The time taken for a compound to degrade in soil allows the estimation of their half-life (t1/2), which corresponds to the time in which 50% of the compound under evaluation is degraded in soil. […] Stock standard solutions were prepared by dissolving 1 mg of each test compound (ie, compounds (IA-1a and IA-1b), (IA-17a and IA-17b), P1 and P2) in acetonitrile. The stock standard solutions were stored at 6° C. Working standard solutions were then obtained by a series of dilutions of the stock standard solutions. A treatment solution of 100 μg/mL concentration for each test compound was prepared in methanol. Soil samples used for this soil stability assay were collected at the Syngenta Research Centre location in Stein (Switzerland). The soil was classified as clay loam. Certain physical properties of the soil are described in Table 2. 2 mm sieved Stein soil was mixed with sand at ratio 1:1 prior to starting the laboratory soil degradation experiment. 10 g of the sand-soil mix (air-dried basis) was weighed into 50 ml Corning® polypropylene centrifuge tubes and soil moisture was adjusted at 45% of the field capacity. Chemical application was performed by applying 30 μl of a 100 μg/mL solution of each test compound to 10 g soil vessel corresponding to a final concentration of 0.3 μg test compound per gram of soil. Three replicates were considered for each test compound. Treated tubes were incubated in the dark at 20° C.±0.5. For the estimation of half-life, different sampling times were considered. Based on initial studies, a fast degradation was expected for compounds P1, P2 and IA-17 therefore the following short sampling times of 0, 3, 6, 9 and 24 hours after application were considered. Conversely for compounds IA-1, longer sampling times of 0, 6, 24, 48, 72, 168 and 240 hours after application were used. At each sampling time, samples were removed and stored at −80° C. until analysis. The half-lives were calculated by an exponential regression analysis plotting the percentage of recovered compound in soil against the time. Compounds P1, P2, (IA-1) and (IA-17) were extracted from soil by using 30 mL of Acetonitrile (CHROMASOLV® gradient grade, for HPLC, >99.9%, SIGMA-ALDRICH). The mixture was shaken for 3 hours at room temperature by using a vertical rotary shaker. After centrifugation at 3000 rpm for 5 minutes, an aliquot of the supernatant was collected and analyzed via UPLC-MS (Waters Acquity UPLC-MS PDA-Detection: 254 nm- and SQD-Zspray ESI, APCI, ESCi®-; Waters Acquity UPLC Column HSS T3 2.1×30 mm-1.8 μm; Gradient mobile phase with Solvent A: Water/MeOH (9:1)+ 0.1% Formic Acid and Solvent B: Acetonitrile+ 0.1% Formic Acid; flow of 0.75 ml/min).

[2] = pH 9, 20 mM acetate/borate/phosphate buffer, read-out: Hydrolytic Stability (t1/2, hours) pH 9 (converted)
[3] = pH 7, 20 mM acetate/borate/phosphate buffer
[4] = pH 7, 20 mM acetate/borate/phosphate buffer, read-out: Hydrolytic Stability (t1/2, hours) pH 7 (converted)

| SMILES | half-life [1, 2] [h] | Hydrolytic Stability (t1/2, hours) pH 7 [1, 3] | Hydrolytic Stability (t1/2, hours) pH 7 ([1]; pH 7, 20 mM acetate/borate/phosphate buffer, listed as IA-1a) | % remaining at last assessment time ([1]; at 17.9 hours) | Soil Stability (t1/2, hours) (Soil stability assay) [h] | Hydrolytic Stability (t1/2, hours) pH 7 ([1]; pH 7, 20 mM acetate/borate/phosphate buffer, listed as IA-1b) | % remaining at last assessment time ([1]; at 21.1 hours) | Hydrolytic Stability (t1/2, hours) pH 7 ([1]; pH 7, 20 mM acetate/borate/phosphate buffer, listed as IA-17a) | % remaining at last assessment time ([1]; at 17.3 hours) | Hydrolytic Stability (t1/2, hours) pH 7 ([1]; pH 7, 20 mM acetate/borate/phosphate buffer, listed as IA-17b) | % remaining at last assessment time ([1]; at 16.8 hours) | half-life [1, 4] [h] | % remaining at last assessment time ([1]; at 21.5 hours) | % remaining at last assessment time ([1]; at 15.8 hours) | T50 (% vs control) (NK Falkone corn seeds) |
| --- | --- | --- | --- | --- | --- | --- | --- | --- | --- | --- | --- | --- | --- | --- | --- |
| CC1=C(C)[C@H](O/C=C2/C(=O)N[C@@H]3c4ccccc4C[C@H]23)OC1=O [(IA-1a), (3E,3aR,8bS)-3-[[(2R)-3,4-dimethyl-5-oxo-2H-furan-2-yl]oxymethylene]-1,3a,4,8b-tetrahydroindeno[1,2-b]pyrrol-2-one] | 2.4 | stable^b | insufficient loss was observed | ^b91.8% remaining at 17.9 hours | 87 | – | – | – | – | – | – | – | – | – | −6.10^c % vs control |
| CC1=C(C)[C@@H](O/C=C2/C(=O)N[C@@H]3c4ccccc4C[C@H]23)OC1=O [(IA-1b), (3E,3aR,8bS)-3-[[(2S)-3,4-dimethyl-5-oxo-2H-furan-2-yl]oxymethylene]-1,3a,4,8b-tetrahydroindeno[1,2-b]pyrrol-2-one] | 2.1 | stable^a | – | – | 53 | insufficient loss was observed | ^a90.9% remaining at 21.1 hours | – | – | – | – | – | – | – | −7.60 % vs control |
| COC1=C(C)C(=O)O[C@H]1O/C=C1/C(=O)N[C@@H]2c3ccccc3C[C@H]12 [(IA-17a), (3E,3aR,8bS)-3-[[(2R)-3-methoxy-4-methyl-5-oxo-2H-furan-2-yl]oxymethylene]-1,3a,4,8b-tetrahydroindeno[1,2-b]pyrrol-2-one] | 16.6 | stable^d | – | – | 340 | – | – | insufficient loss was observed | ^d99.1% remaining at 17.3 hours | – | – | – | – | – | −6.50 % vs control |
| COC1=C(C)C(=O)O[C@@H]1O/C=C1/C(=O)N[C@@H]2c3ccccc3C[C@H]12 [(IA-17b), (3E,3aR,8bS)-3-[[(2S)-3-methoxy-4-methyl-5-oxo-2H-furan-2-yl]oxymethylene]-1,3a,4,8b-tetrahydroindeno[1,2-b]pyrrol-2-one] | 19 | stable^c | – | – | 312 | – | – | – | – | insufficient loss was observed | ^c99.0% remaining at 16.8 hours | – | – | – | −5.10 % vs control |

Further lines, with some results ahead:

| half-life [1, 2] [h] | Hydrolytic Stability (t1/2, hours) pH 7 [1, 3] | Hydrolytic Stability (t1/2, hours) pH 7 ([1]; pH 7, 20 mM acetate/borate/phosphate buffer, listed as IA-1a) | % remaining at last assessment time ([1]; at 17.9 hours) | Soil Stability (t1/2, hours) (Soil stability assay) [h] | Hydrolytic Stability (t1/2, hours) pH 7 ([1]; pH 7, 20 mM acetate/borate/phosphate buffer, listed as IA-1b) | % remaining at last assessment time ([1]; at 21.1 hours) | Hydrolytic Stability (t1/2, hours) pH 7 ([1]; pH 7, 20 mM acetate/borate/phosphate buffer, listed as IA-17a) | % remaining at last assessment time ([1]; at 17.3 hours) | Hydrolytic Stability (t1/2, hours) pH 7 ([1]; pH 7, 20 mM acetate/borate/phosphate buffer, listed as IA-17b) | % remaining at last assessment time ([1]; at 16.8 hours) | half-life [1, 4] [h] | % remaining at last assessment time ([1]; at 21.5 hours) | % remaining at last assessment time ([1]; at 15.8 hours) | SMILES | T50 (% vs control) (NK Falkone corn seeds) |
| --- | --- | --- | --- | --- | --- | --- | --- | --- | --- | --- | --- | --- | --- | --- | --- |
| 0.4 | – | – | – | 4 | – | – | – | – | – | – | 25.6 | ^f55.4% remaining at 21.5 hours | – | CC1=C[C@H](O/C=C2/C(=O)N[C@@H]3c4ccccc4C[C@H]23)OC1=O [Compound P1, reference compound] | −4.20 % vs control |
| 0.3 | – | – | – | 4.2 | – | – | – | – | – | – | 79.5 | – | ^e86.9% remaining at 15.8 hours | CC1=C[C@@H](O/C=C2/C(=O)N[C@@H]3c4ccccc4C[C@H]23)OC1=O [Compound P2, reference compound] | −2.30 % vs control |
